Assay results taken from PubChem BioAssay (NCI).
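96-well plates; 48 h exposure; 5 concentrations. Endpoints by linear interpolation between flanking doses. Not reached: highest tested concentration assigned. GI50: concentration for 50% inhibition of growth. TGI denotes the concentration required for complete inhibition of growth.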

How the values were obtained:
Assay in all cases: NCI anticancer screen, dose series, 48 h
[1] = tested on: 786-0 renal
[2] = tested on: A498 renal
[3] = tested on: A549 NSCLC
[4] = tested on: ACHN renal
[5] = tested on: BT-549 breast
[6] = tested on: CAKI-1 renal
[7] = tested on: CCRF-CEM leukemia
[8] = tested on: COLO 205 colon
[9] = tested on: DU-145 prostate
[10] = tested on: EKVX NSCLC
[11] = tested on: HCC-2998 colon
[12] = tested on: HCT-116 colon
[13] = tested on: HCT-15 colon
[14] = tested on: HL-60(TB) leukemia
[15] = tested on: HOP-62 NSCLC
[16] = tested on: HOP-92 NSCLC
[17] = tested on: HS 578T breast
[18] = tested on: HT29 colon
[19] = tested on: IGROV1 ovarian
[20] = tested on: K-562 leukemia
[21] = tested on: KM12 colon
[22] = tested on: LOX IMVI melanoma
[23] = tested on: M14 melanoma
[24] = tested on: MALME-3M melanoma
[25] = tested on: MCF7 breast
[26] = tested on: MDA-MB-231 breast
[27] = tested on: MDA-MB-435
[28] = tested on: MOLT-4 leukemia
[29] = tested on: NCI-H226 lung
[30] = tested on: NCI-H23 lung
[31] = tested on: NCI-H460 lung
[32] = tested on: NCI-H522 lung
[33] = tested on: NCI/ADR-RES ovarian
[34] = tested on: OVCAR-4 ovarian
[35] = tested on: OVCAR-5 ovarian
[36] = tested on: OVCAR-8 ovarian
[37] = tested on: PC-3 prostate
[38] = tested on: RPMI-8226 leukemia
[39] = tested on: RXF 393 renal
[40] = tested on: SF-268 CNS
[41] = tested on: SF-295 CNS
[42] = tested on: SF-539 CNS
[43] = tested on: SK-MEL-2 melanoma
[44] = tested on: SK-MEL-28 melanoma
[45] = tested on: SK-MEL-5 melanoma
[46] = tested on: SK-OV-3 ovarian
[47] = tested on: SN12C renal
[48] = tested on: SNB-19 CNS
[49] = tested on: SNB-75 CNS
[50] = tested on: SR leukemia
[51] = tested on: SW-620 colon
[52] = tested on: T-47D breast
[53] = tested on: TK-10 renal
[54] = tested on: U251 CNS
[55] = tested on: UACC-257 melanoma
[56] = tested on: UACC-62 melanoma
[57] = tested on: UO-31 renal

With CN(C)CCNC(=O)c1ccc(-c2nc3ccc4[nH]ncc4c3c3c2CCC3)cc1 as the compound, how does the GI50 [1] read?
The GI50 was 882 nM.

And the TGI [1]?
Its TGI is 5610 nM.

What about the GI50 [2] of the same compound?
Its GI50 is 281 nM.

What about the TGI [2] of the same compound?
The TGI was 1070 nM.

What about the GI50 [3] of the same compound?
Its GI50 is 1260 nM.

What about the TGI [3] of the same compound?
Its TGI is 6780 nM.

And the GI50 [4]?
The GI50 was 844 nM.

What about the TGI [4] of the same compound?
The TGI was 6860 nM.

What about the GI50 [5] of the same compound?
The GI50 was 650 nM.

What about the TGI [5] of the same compound?
The TGI was 1430 nM.

What about the GI50 [6] of the same compound?
Its GI50 is 263 nM.

What about the TGI [6] of the same compound?
The TGI was 5540 nM.

What about the GI50 [7] of the same compound?
The GI50 was 857 nM.

What about the TGI [7] of the same compound?
The TGI was 28700 nM.

What about the GI50 [8] of the same compound?
Its GI50 is 507 nM.

And the TGI [8]?
Its TGI is 2230 nM.

What about the GI50 [9] of the same compound?
Its GI50 is 760 nM.

And the TGI [9]?
The TGI was 5010 nM.

And the GI50 [10]?
The GI50 was 891 nM.

What about the TGI [10] of the same compound?
Its TGI is 5010 nM.

And the GI50 [11]?
Its GI50 is 1250 nM.

And the TGI [11]?
Its TGI is 5680 nM.

What about the GI50 [12] of the same compound?
Its GI50 is 331 nM.

What about the TGI [12] of the same compound?
Its TGI is 4340 nM.

What about the GI50 [13] of the same compound?
The GI50 was 1610 nM.

And the TGI [13]?
Its TGI is 7630 nM.

What about the GI50 [14] of the same compound?
The GI50 was 992 nM.

What about the TGI [14] of the same compound?
Its TGI is 3340 nM.

What about the GI50 [15] of the same compound?
The GI50 was 593 nM.

What about the TGI [15] of the same compound?
Its TGI is 2670 nM.

What about the GI50 [16] of the same compound?
Its GI50 is 343 nM.

And the TGI [16]?
The TGI was 1840 nM.

And the GI50 [17]?
Its GI50 is 549 nM.

And the TGI [17]?
Its TGI is 1990 nM.

And the GI50 [18]?
The GI50 was 1290 nM.

What about the TGI [18] of the same compound?
The TGI was 6130 nM.

What about the GI50 [19] of the same compound?
The GI50 was 684 nM.

And the TGI [19]?
The TGI was 5400 nM.

And the GI50 [20]?
The GI50 was 1110 nM.

And the TGI [20]?
Its TGI is 20100 nM.

And the GI50 [21]?
Its GI50 is 1080 nM.

And the TGI [21]?
The TGI was 4620 nM.

And the GI50 [22]?
The GI50 was 616 nM.

What about the TGI [22] of the same compound?
The TGI was 1500 nM.

What about the GI50 [23] of the same compound?
The GI50 was 961 nM.

And the TGI [23]?
The TGI was 6080 nM.

And the GI50 [24]?
The GI50 was 1260 nM.

And the TGI [24]?
Its TGI is 4130 nM.

And the GI50 [25]?
The GI50 was 657 nM.

And the TGI [25]?
Its TGI is 5250 nM.

What about the GI50 [26] of the same compound?
Its GI50 is 927 nM.

And the TGI [26]?
Its TGI is 2840 nM.

What about the GI50 [27] of the same compound?
The GI50 was 1130 nM.

What about the TGI [27] of the same compound?
Its TGI is 6990 nM.

What about the GI50 [28] of the same compound?
The GI50 was 1040 nM.

What about the TGI [28] of the same compound?
Its TGI is 15300 nM.

And the GI50 [29]?
Its GI50 is 1010 nM.

And the TGI [29]?
The TGI was 6340 nM.

What about the GI50 [30] of the same compound?
Its GI50 is 1190 nM.

What about the TGI [30] of the same compound?
Its TGI is 3940 nM.

And the GI50 [31]?
The GI50 was 1280 nM.

And the TGI [31]?
Its TGI is 5170 nM.

And the GI50 [32]?
Its GI50 is 387 nM.

And the TGI [32]?
Its TGI is 1320 nM.

And the GI50 [33]?
The GI50 was 9070 nM.

What about the TGI [33] of the same compound?
Its TGI is 50000 nM.

And the GI50 [34]?
Its GI50 is 1330 nM.

And the TGI [34]?
The TGI was 5480 nM.

And the GI50 [35]?
Its GI50 is 1400 nM.

And the TGI [35]?
Its TGI is 7340 nM.

What about the GI50 [36] of the same compound?
The GI50 was 854 nM.

And the TGI [36]?
Its TGI is 5800 nM.

And the GI50 [37]?
The GI50 was 717 nM.

What about the TGI [37] of the same compound?
Its TGI is 4960 nM.

What about the GI50 [38] of the same compound?
The GI50 was 1190 nM.

What about the TGI [38] of the same compound?
Its TGI is 4140 nM.

And the GI50 [39]?
Its GI50 is 279 nM.

What about the TGI [39] of the same compound?
Its TGI is 1100 nM.

And the GI50 [40]?
Its GI50 is 634 nM.

What about the TGI [40] of the same compound?
Its TGI is 2140 nM.

What about the GI50 [41] of the same compound?
Its GI50 is 1340 nM.

And the TGI [41]?
The TGI was 5380 nM.

What about the GI50 [42] of the same compound?
The GI50 was 606 nM.

What about the TGI [42] of the same compound?
Its TGI is 1740 nM.

And the GI50 [43]?
Its GI50 is 850 nM.

And the TGI [43]?
Its TGI is 1830 nM.

What about the GI50 [44] of the same compound?
The GI50 was 1310 nM.

And the TGI [44]?
The TGI was 5340 nM.

What about the GI50 [45] of the same compound?
Its GI50 is 1600 nM.

What about the TGI [45] of the same compound?
The TGI was 5980 nM.

What about the GI50 [46] of the same compound?
Its GI50 is 288 nM.

And the TGI [46]?
The TGI was 3040 nM.

What about the GI50 [47] of the same compound?
The GI50 was 1130 nM.

And the TGI [47]?
The TGI was 4150 nM.

What about the GI50 [48] of the same compound?
Its GI50 is 1470 nM.

What about the TGI [48] of the same compound?
The TGI was 6210 nM.

And the GI50 [49]?
Its GI50 is 543 nM.

What about the TGI [49] of the same compound?
Its TGI is 2040 nM.

And the GI50 [50]?
Its GI50 is 140 nM.

What about the TGI [50] of the same compound?
Its TGI is 2820 nM.

And the GI50 [51]?
The GI50 was 611 nM.

And the TGI [51]?
The TGI was 3610 nM.

And the GI50 [52]?
The GI50 was 1370 nM.

What about the TGI [52] of the same compound?
Its TGI is 9660 nM.

And the GI50 [53]?
Its GI50 is 295 nM.

What about the TGI [53] of the same compound?
The TGI was 5380 nM.

What about the GI50 [54] of the same compound?
Its GI50 is 1020 nM.

What about the TGI [54] of the same compound?
Its TGI is 6510 nM.

What about the GI50 [55] of the same compound?
The GI50 was 2310 nM.

What about the TGI [55] of the same compound?
The TGI was 8360 nM.

What about the GI50 [56] of the same compound?
The GI50 was 1100 nM.

What about the TGI [56] of the same compound?
Its TGI is 6100 nM.

What about the GI50 [57] of the same compound?
Its GI50 is 1070 nM.

And the TGI [57]?
The TGI was 4660 nM.
